The subject of test [1] is LTB4 production from IgE-stimulated RBL-2H3 cells. Briefly: Suppressing action on LTB4 production from IgE-stimulated RBL-2H3 cells. The format is cell-based. The following applies: Rattus norvegicus, 10 min, IgE/DNP-BSA stimulated RBL-2H3 cells, read-out: LTB4 production suppression ratio. The source says:
(§1) 2. Suppressing Action on PGD2 and LTB4 Production from IgE-Stimulated RBL-2H3 Cells
(§2) Suppressing action on PGD2 and LTB4 production caused by IgE as an allergic stimulant was investigated by the following method. Cells of RBL-2H3, which is a rat mastocytoma cell line (purchased from ATCC), were suspended in DEMEM medium (GIBCO) containing 10% fetal bovine serum (BioFluid), inoculated to each well of 48-well culture plate at a density of 2×10^4 cells/well and cultured overnight. Then, IgE antiserum directed to dinitrophenylated BSA (henceforth DNP-BSA) was further added to each well, and the cells were cultured for 30 minutes. Then, the medium was changed to DEMEM medium containing 0.5% fetal bovine serum, a test compound was added with each well, and DNP-BSA was further added at a final concentration of 100 ng/ml as a stimulant. Ten minutes after the stimulant was added, the culture supernatant was collected, and the PGD2 concentration and LTB4 concentration in the culture supernatant were measured by using EIA kit (CAYMAN). By using a well which was not added with the stimulant as a negative control and a well which was added only with the stimulant as a positive control, suppressing ratios on mediator production were calculated from the production amounts of the mediators in the well added with the test compound using the following equation. PGD2 or LTB4 production suppression ratio=[1−(C−B)/(A−B)]×100 • A: PGD2 or LTB4 production amount of positive control • B: PGD2 or LTB4 production amount of negative control • C: PGD2 or LTB4 production amount in well added with test compound
(§3) Further, as control compounds for comparison, reference compound (1), 3-(2-cyclohexylmethyloxy-1,1′-biphenyl-5-yl)propionic acid described in WO99/19291, reference compounds (2) and (3), [2-(5,6,7,8-tetrahydro-5,5,8,8-tetramethyl-2-naphthalenyl)methyloxy-1,1′-biphenyl-5-yl]carboxylic acid [reference compound (2)] and 3-[3′-carboxy-2-(5,6,7,8-tetrahydro-5,5,8,8-tetramethyl-2naphthalenyl)methyloxy-1,1′-biphenyl-6-yl]propionic acid [reference compound (3)] described in U.S. Pat. No. 5,391,817 and Japanese Patent Unexamined Publication (Kokai) No. 7-22399, respectively, were used, and activities thereof were similarly measured.

The test system of test [2] is PGE2 production from IL-1β-stimulated MG-63 cells. As to the kind of experiment: Suppressing action on PGE2 production from IL-1β-stimulated MG-63 cells. The class given is cell-based. The following applies: Homo sapiens, IL-1β 1 ng/ml, 18 hours, read-out: PGE2 production suppression ratio. The method in brief:
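PGE2 in 18 h supernatants was quantified by EIA and expressed as % suppression relative to IL-1β-only and unstimulated controls. Cells were the MG-63 osteosarcoma line, plated at 2×10^4/well, given compound in 0.5% FBS EMEM, then 1 ng/ml IL-1β final.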

The subject of test [3] is zymosan-stimulated footpad edema. As to the kind of experiment: Mouse zymosan-stimulated footpad edema reaction. The class given is in vivo. The following applies: ICR female mice, oral 0.1 to 500 mg/kg, compared with positive control group. The procedure: 3. Suppressing Effect on Mouse Zymosan-stimulated Footpad Edema Reaction A suppressing effect on footpad edema caused by zymosan as an inflammatory stimulant was studied by the following method. Groups of ICR female mice (6- to 7-week old) each consisting of eight mice were used for the test. A test compound was suspended or dissolved in purified water containing 0.5% methylcellulose and orally administered to the test animals at 0.1 to 500 mg/0.2 ml/kg. To the control group, purified water containing 0.5% methylcellulose was administered in a similar manner, which was not added with a test compound. One hour after the administration of the test compound, 0.02 ml of a suspension of zymosan suspended in physiological saline (Otsuka Pharmaceutical) at 1 mg/ml was subcutaneously administered to right hind leg footpad of each mouse. One and two hours after the administration of the zymosan suspension, volume of the right hind leg footpad was measured by using an apparatus for measuring a volume of mouse hind leg footpad edema (Unicom). A difference of the volume of footpad measured above and the footpad volume before the administration of the test compound measured beforehand was regarded as a volume of the edema. For the volume of the edema at 1 hour or 2 hours after the zymosan administration, a graph was prepared by indicating time in abscissa and the edema volume in ordinate, and an edema volume AUC (area under the curve) was obtained up to 2 hours by calculation using the following equation. Edema volume AUC (1·hour)=1/2×1×A+1×(A+B)/2 • A: Edema volume 1 hour after zymosan administration • B: Edema volume 2 hour after zymosan administration A suppression ratio on edema of test compound was obtained by calculation using the following equation. Edema suppression ratio (%)=[1−B/A]×100 • A: Edema volume AUC of positive control • B: Edema volume AUC of test compound administered group (2) Measurement Results

For test [4], the system named is PGD2 production from IgE-stimulated RBL-2H3 cells. As to the kind of experiment: Suppressing action on PGD2 production from IgE-stimulated RBL-2H3 cells. The format is cell-based. To be noted: Rattus norvegicus, 10 min, IgE/DNP-BSA stimulated RBL-2H3 cells, read-out: PGD2 production suppression ratio.
Description: as §1, §2, §3

We go through 17 molecules from patent US6867320B2, “Substituted phenylalkanoic acid derivatives and use thereof” (Asahi Kasei Pharma Corporation, priority 2002, dated 2005).

As to `O=C(O)CCc1ccc(OCC2CCCC2)c(-c2ccc3cc(O)ccc3c2)c1` [Compound 004, 3-[4-cyclopentylmethyloxy-3-(6-hydroxynaphthalen-2-yl)phenyl]propionic acid], the inhibition at 0.4 µM in test [1], in test [2] and in test [4] was at least 50% each time. Moreover, in test [3], the “suppression of footpad edema caused by zymosan” value (“suppression” for short) was “suppressed footpad edema”.

With `O=C(O)CCc1ccc(OCC2CCCC2)c(-c2ccc3c(O)cccc3c2)c1` [Compound 010, 3-[4-cyclopentylmethyloxy-3-(5-hydroxynaphthalen-2-yl)phenyl]propionic acid], the inhibition at 0.4 µM in test [1], in test [2] and in test [4] was at least 50% each time. In addition, the “suppression” value in test [3] was “suppressed footpad edema”.

Consider `O=C(O)CCc1ccc(OCC2CCCCC2)c(-c2ccc3ccccc3c2)c1` [Compound 066, 3-[4-cyclohexylmethyloxy-3-(naphthalen-2-yl)phenyl]propionic acid], for which the inhibition at 0.4 µM in test [1], in test [2] and in test [4] was at least 50% throughout. Moreover, the “suppression” value in test [3] was “suppressed footpad edema”.

With `Nc1cc(CCC(=O)O)cc(-c2ccc3ccccc3c2)c1OCC1CCCC1` [Compound 095, 3-[3-amino-4-cyclopentylmethyloxy-5-(naphthalen-2-yl)phenyl]propionic acid], the inhibition at 0.4 µM in test [1], in test [2] and in test [4] was at least 50% in each case. The “suppression” value in test [3] was “suppressed footpad edema”.

`COC(=O)CCc1ccc(OCC2CCCC2)c(-c2ccc3[nH]ccc3c2)c1` [Compound 099, methyl 3-[4-cyclopentylmethyloxy-3-(1H-indol-5-yl)phenyl]propionate]: the inhibition at 0.4 µM in test [1], in test [2] and in test [4] was at least 50% each time. Further, the “suppression” value in test [3] was “suppressed footpad edema”.

`O=C(O)CCc1ccc(OC2CCCC2)c(-c2ccc3[nH]ccc3c2)c1` [Compound 102, 3-[4-cyclopentyloxy-3-(1H-indol-5-yl)phenyl]propionic acid]: the inhibition at 0.4 µM in test [1], in test [2] and in test [4] was at least 50% throughout. Moreover, in test [3], the “suppression” value was “suppressed footpad edema”.

For `O=C(O)CCc1ccc(OC2CCCCC2)c(-c2ccc3[nH]ccc3c2)c1` [Compound 104, 3-[4-cyclohexyloxy-3-(1H-indol-5-yl)phenyl]propionic acid], the inhibition at 0.4 µM in test [1], in test [2] and in test [4] was at least 50% in each case. Moreover, the “suppression” value in test [3] is reported as “suppressed footpad edema”.

For `Cn1ccc2cc(-c3cc(CCC(=O)O)ccc3OC3CCCCC3)ccc21` [Compound 110, 3-[4-cyclohexyloxy-3-(1-methyl-1H-indol-5-yl)phenyl]propionic acid], the inhibition at 0.4 µM in test [1], in test [2] and in test [4] was at least 50% in each case. Also, the “suppression” value in test [3] is “suppressed footpad edema”.

As for `O=C(O)CCc1ccc(OCc2ccccc2F)c(-c2ccc3[nH]ccc3c2)c1` [Compound 142, 3-[4-(2-fluorophenylmethyloxy)-3-(1H-indol-5-yl)phenyl]propionic acid], the inhibition at 0.4 µM in test [1], in test [2] and in test [4] was at least 50% each time. Besides, in test [3], the “suppression” value was “suppressed footpad edema”.

For `O=C(O)CCc1ccc(OCc2ccccc2Cl)c(-c2ccc3[nH]ccc3c2)c1` [Compound 148, 3-[4-(2-chlorophenylmethyloxy)-3-(1H-indol-5-yl)phenyl]propionic acid], the inhibition at 0.4 µM in test [1], in test [2] and in test [4] was at least 50% throughout. Moreover, the “suppression” value in test [3] was “suppressed footpad edema”.

Regarding `O=C(O)CCc1ccc(OCc2cccc(Cl)c2)c(-c2ccc3[nH]ccc3c2)c1` [Compound 150, 3-[4-(3-chlorophenylmethyloxy)-3-(1H-indol-5-yl)phenyl]propionic acid], the inhibition at 0.4 µM in test [1], in test [2] and in test [4] was at least 50% throughout. Moreover, in test [3], the “suppression” value is recorded as “suppressed footpad edema”.

In the case of `O=C(O)CCc1ccc(OCc2ccc(Cl)cc2)c(-c2ccc3[nH]ccc3c2)c1` [Compound 152, 3-[4-(4-chlorophenylmethyloxy)-3-(1H-indol-5-yl)phenyl]propionic acid], the inhibition at 0.4 µM in test [1], in test [2] and in test [4] was at least 50% throughout. Also, in test [3], the “suppression” value is “suppressed footpad edema”.

For the molecule `O=C(O)CCc1ccc(OCc2ccccc2Br)c(-c2ccc3[nH]ccc3c2)c1` [Compound 154, 3-[4-(2-bromophenylmethyloxy)-3-(1H-indol-5-yl)phenyl]propionic acid], the inhibition at 0.4 µM in test [1], in test [2] and in test [4] was at least 50% throughout. In addition, in test [3], the “suppression” value was “suppressed footpad edema”.

For `O=C(O)CCc1ccc(OCc2ccc(-c3ccccc3)cc2)c(-c2ccc3[nH]ccc3c2)c1` [Compound 179, 3-{4-[(biphenyl-4-yl)methyloxy]-3-(1H-indol-5-yl)phenyl}propionic acid], the inhibition at 0.4 µM in test [1], in test [2] and in test [4] was at least 50% each time. The “suppression” value in test [3] is reported as “suppressed footpad edema”.

Regarding `CCCCOc1ccc(COc2ccc(CCC(=O)OC)cc2-c2ccc3[nH]ccc3c2)cc1` [Compound 185, methyl 3-{4-[4-(butyloxy)phenylmethyloxy]-3-(1H-indol-5-yl)-phenyl}propionate], the inhibition at 0.4 µM in test [1] and in test [4] was at least 50% each time. Besides, the “suppression” value in test [3] is on record as “suppressed footpad edema”.

Regarding `Cc1ccc(CCOc2ccc(CCC(=O)O)cc2-c2ccc3[nH]ccc3c2)cc1` [Compound 204, 3-{3-(1H-indol-5-yl)-4-[2-(4-methylphenyl)ethyloxy]phenyl}propionic acid], the inhibition at 0.4 µM in test [1], in test [2] and in test [4] was at least 50% each time. Moreover, the “suppression” value in test [3] is reported as “suppressed footpad edema”.

As for `Cn1ccc2cc(-c3cc(CCC(=O)O)ccc3OCC3CCCC3)ccc21` [Compound 235, 3-[4-cyclopentylmethyloxy-3-(1-methyl-1H-indol-5-yl)phenyl]propionic acid], the inhibition at 0.4 µM in test [1], in test [2] and in test [4] was at least 50% throughout. Moreover, the “suppression” value in test [3] is “suppressed footpad edema”.
